Read-outs that look alike come from different tables or passages of the source.

In patent US20260022118A1, “HETEROCYCLIC COMPOUNDS AS NRAS INHIBITORS” (Board of Regents, The University of Texas System, priority 2023, published 2026) one finds Kd and IC50 data, which are given here for 15 compounds.

The target in one test is NRAS G12D C118S (Homo sapiens (Human), UniProt P01111, C118S/G12D). Description: NRas G12D Surface Plasmon Resonance (SPR) binding assay. The settings on record: Avi-tagged biotinylated NRAS G12D C118S on streptavidin chip, 25° C., 1:1 kinetic or steady-state fit. Here is the method: NRas G12D Surface Plasmon Resonance (SPR) Binding Assay
This Example illustrates that exemplary compounds and salts thereof described herein bind to NRAS G12D as measured by surface plasmon resonance (SPR).
Two liters of 1.03× running buffer (1.03×HBS-P+pH 7.4, containing 0.0103 M HEPES, 0.1545 M NaCl, 0.0515% v/v Surfactant P20 (Cytiva®, BR100671); 5.15 mM MgCl2 (Invitrogen, AM9530G); 0.515 mM TCEP, pH 8.0 (GoldBio®, TCEP25)) was prepared and filter sterilized using a 0.22 μm filter. A 1-L volumetric flask was filled partway with this buffer. A 30-mL volumetric flask was used to measure 30 mL of 100% DMSO (Sigma Aldrich®, 41639-100ML) which was added to the 1-L flask. The solution in the 1-L flask was brought up to 1 L with 1.03× buffer, resulting in a 1.0× assay running buffer containing 1.0×HBS-P+, 5 mM MgCl2, […], and 3% DMSO. Remaining 1.03× buffer was used for preparation of samples and immobilization running buffer.
Samples were prepared in a standard conical-bottomed 384-well microplate by adding 2 μL 10 mM DMSO cpd stock to each well, followed by 8 μL DMSO. A control compound was selected based off of its relatively “fast” kinetics that could be fitted by 1:1 kinetic fitting, as well as by steady-state fitting. Control wells for periodic injection to assess protein activity throughout the assay were also assembled, by diluting 10 mM compound 1:30 in DMSO, then adding 20 μL to the appropriate wells, such that the final concentration of compound would be 10 μM, and the final concentration of DMSO would be 3%. A Biomek™ FXP Laboratory Automation Workstation was used to stamp 20 μL DMSO into all sample wells—minus the control wells—according to the plate map, and then serially dilute 1:3 by mixing and aspirating 10 μL, delivering into the 20 μL of DMSO in the next well, resulting in 10-point serial dilution curves. A Biotek™ Multiflo EL406 Washer Dispenser was used to deliver 80 μL of 1.03× buffer to the compound plate. The plate was mixed 10× by FX, then a final dilution was performed by stamping 18 μL from the compound plate into a 384-well deep-well plate that had also been previously filled with 102 μL 1.03× buffer via the Multiflo. The solution in the deep-well plate was mixed 10× by FX, then sealed with a 384-well microplate foil from Cytiva® (Cytiva® BR100577) and placed on an orbital shaker for 30 minutes at 1000 RPM to ensure complete mixing of the DMSO solution in the buffer. A solvent correction curve was also prepared by making a 4% DMSO solution in 1.03× buffer and diluting in 1.03× buffer such that there were eight solutions of decreasing DMSO concentrations resulting in a high DMSO concentration of 4% and a low concentration of 2% DMSO.
Immobilization running buffer was prepared in a 200-mL volume by diluting 1.03× running buffer prepared above to 1.0×. A Cytiva® Streptavidin chip (Cytiva®, 29104992) was docked into a Biacore™ S200 instrument, and the instrument was then primed three times into the immobilization running buffer. A protein stock of Avi-tagged NRAS G12D C118S was prepared in-house and biotinylated using the Bulk BirA: BirA biotin-protein ligase bulk reaction kit from Avidity (Avidity®, Bulk BirA). Upon completion of the biotinylation reaction, Amicon® ultra 0.5-mL Centrifugal Filters with a MWCO of 3 k Da (Millipore® UFC500396) were used to reduce the free biotin concentration below 0.1 μM in the protein sample over the course of eight desalting cycles, according to the manufacturer's protocol. Resulting protein concentration was not measured directly as an accurate protein concentration is not required for immobilizing protein on the chip surface; however, a theoretical yield of ≤1.5 mg/mL was estimated based off of retained volumes during the desalting process. Reagents for immobilization were prepared as instructed in the Biacore™ 5200 Control Software Immobilization Wizard, including solutions of 1 M NaCl in 50 mM NaOH, and 1 M NaCl in 50 mM NaOH and 50% isopropyl alcohol. […]

For test [1], the system named is THP-1 cells expressing G12D (NRAS G12D). Description: Inhibition of NRAS G12D-mediated phosphorylation of ERK (AlphaLISA p-ERK1/2) in THP-1 cells. The settings on record: 2 hours incubation, HBSS with 0% or 10% FBS, p-ERK1/2 (Thr202/Tyr204) AlphaLISA, read-out: pERK THP-1 IC50. Type of test: cell-based. In short, it runs like this:
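THP-1 cells expressing NRAS G12D, seeded in HBSS with 0% or 10% FBS, were exposed to test compound (1% DMSO final) for 2 h. p-ERK1/2 (Thr202/Tyr204) read by AlphaLISA SureFire Ultra. IC50 from curves normalized to no-inhibitor (100%) and 1 μM trametinib (0%) controls.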

Chain of NRAS G12D C118S (P01111 whole entry G12D/C118S): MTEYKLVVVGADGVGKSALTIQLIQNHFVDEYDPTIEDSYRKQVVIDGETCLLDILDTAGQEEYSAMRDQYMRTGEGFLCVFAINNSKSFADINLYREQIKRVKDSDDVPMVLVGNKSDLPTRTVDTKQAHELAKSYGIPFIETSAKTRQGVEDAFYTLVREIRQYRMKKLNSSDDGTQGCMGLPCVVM

With `C#Cc1c(F)ccc2cc(O)cc(-c3ncc4c(c(C)cn4C4[C@H]5CNC[C@@H]45)c3F)c12` (stereo partly drawn) [Example 40, 4-[1-[(1R,5S)-3-azabicyclo[3.1.0]hexan-6-yl]-4-fluoro-3-methyl-pyrrolo[2,3-c]pyridin-5-yl]-5-ethynyl-6-fluoro-naphthalen-2-ol], on NRAS G12D C118S, binding was characterised by a dissociation constant (Kd) of 1130 nM. Moreover, the IC50 in test [1] (Homo sapiens, THP-1, 2 h) is greater than 10000 nM.

On to `C#Cc1c(F)ccc2cc(O)cc(-c3ncc4c(C5=CC6CCC5CN6)nn(C)c4c3F)c12` (stereo not drawn) [Example 42, 4-[3-(2-azabicyclo[2.2.2]oct-5-en-5-yl)-7-fluoro-1-methyl-pyrazolo[4,3-c]pyridin-6-yl]-5-ethynyl-6-fluoro-naphthalen-2-ol], for which the dissociation constant Kd on NRAS G12D C118S stood at 2980 nM. The concentration for half-maximal inhibition (IC50) in test [1] (Homo sapiens, THP-1, 2 h) is greater than 10000 nM.

In the case of `C#Cc1c(F)ccc2cc(O)cc(-c3ncc4c(C5CC6CCC5CN6)nn(C)c4c3F)c12` (stereo not drawn) [Example 44, 4-[3-(2-azabicyclo[2.2.2]octan-5-yl)-7-fluoro-1-methyl-pyrazolo[4,3-c]pyridin-6-yl]-5-ethynyl-6-fluoro-naphthalen-2-ol], the Kd on NRAS G12D C118S was found to be 201 nM. The 50% inhibitory concentration (IC50) in test [1] is 6740 nM.

`C#Cc1c(F)ccc2cc(O)cc(-c3ncc4c(c3F)n(C)c(=O)n4C3[C@H]4CNC[C@@H]34)c12` (stereo partly drawn) [Example 45, 3-[(1R,5S)-3-azabicyclo[3.1.0]hexan-6-yl]-6-(8-ethynyl-7-fluoro-3-hydroxy-1-naphthyl)-7-fluoro-1-methyl-imidazo[4,5-c]pyridin-2-one] showed a Kd on NRAS G12D C118S of 9940 nM. Besides, the concentration for half-maximal inhibition (IC50) in test [1] (Homo sapiens, THP-1, 2 h) is greater than 10000 nM.

As for `C#Cc1c(F)ccc2cc(O)cc(-c3ncc4c([C@H]5[C@@H]6CNC[C@@H]65)nn(C5C[C@@H]5C)c4c3F)c12` (stereo partly drawn) [Example 46, 4-(3-((1R,5S,6r)-3-azabicyclo[3.1.0]hexan-6-yl)-7-fluoro-1-((1S,2S)-2-methylcyclopropyl)-1H-pyrazolo[4,3-c]pyridin-6-yl)-5-ethynyl-6-fluoronaphthalen-2-ol], at NRAS G12D C118S, binding was put at a Kd of 60.7 nM. In addition, the IC50 in test [1] (Homo sapiens, THP-1, 2 h) came out at 1940 nM.

`C#Cc1c(F)ccc2cc(O)cc(-c3ncc4c(C5C6CNCC65)nn(C5CC5(F)F)c4c3F)c12` (stereo not drawn) [Example 49, 4-[3-(3-azabicyclo[3.1.0]hexan-6-yl)-1-(2,2-difluorocyclopropyl)-7-fluoro-pyrazolo[4,3-c]pyridin-6-yl]-5-ethynyl-6-fluoro-naphthalen-2-ol]: binding at NRAS G12D C118S was put at a Kd of 81.5 nM. Further, in test [1] (Homo sapiens, THP-1, 2 h), the half-maximal inhibitory concentration (IC50) was 438 nM.

Take `C#Cc1c(F)ccc2cc(O)cc(-c3ncc4c(N5C[C@@H]6C[C@H](O)[C@H](C5)N6)nn(C)c4c3F)c12` [Example 57, (1S,5S,6S)-3-(6-(8-ethynyl-7-fluoro-3-hydroxynaphthalen-1-yl)-7-fluoro-1-methyl-1H-pyrazolo[4,3-c]pyridin-3-yl)-3,8-diazabicyclo[3.2.1]octan-6-ol]: the Kd at NRAS G12D C118S came out at 737 nM. Further, in test [1] (Homo sapiens, THP-1, 2 h), the concentration for half-maximal inhibition (IC50) amounted to 17300 nM.

In the case of `C#Cc1c(F)ccc2cc(O)cc(-c3ncc4c([C@H]5[C@@H]6CNC[C@@H]65)c(C#N)n(C)c4c3F)c12` [Example 58, 3-((1R,5S,6s)-3-azabicyclo[3.1.0]hexan-6-yl)-6-(8-ethynyl-7-fluoro-3-hydroxynaphthalen-1-yl)-7-fluoro-1-methyl-1H-pyrrolo[3,2-c]pyridine-2-carbonitrile], the Kd on NRAS G12D C118S was found to be 300 nM. The IC50 in test [1] (Homo sapiens, THP-1, 2 h) is 4800 nM.

Regarding `C#CCn1nc([C@H]2[C@@H]3CNC[C@@H]32)c2cnc(-c3cc(O)cc4ccc(F)c(C#C)c34)c(F)c21` [Example 59, 4-(3-((1R,5S,6r)-3-azabicyclo[3.1.0]hexan-6-yl)-7-fluoro-1-(prop-2-yn-1-yl)-1H-pyrazolo[4,3-c]pyridin-6-yl)-5-ethynyl-6-fluoronaphthalen-2-ol], the affinity on NRAS G12D C118S, expressed as Kd, was 1110 nM. Further, the concentration for half-maximal inhibition (IC50) in test [1] (Homo sapiens, THP-1, 2 h) turned out to be 3470 nM.

Turning to `C#Cc1c(F)ccc2cc(O)cc(-c3ncc4c(N5C[C@H]6CC[C@@H]5CN6)nn(C)c4c3F)c12` [Example 60, 4-(3-((1R,4R)-2,5-diazabicyclo[2.2.2]octan-2-yl)-7-fluoro-1-methyl-1H-pyrazolo[4,3-c]pyridin-6-yl)-5-ethynyl-6-fluoronaphthalen-2-ol], binding on NRAS G12D C118S was put at a Kd of 2550 nM. For the same compound, the IC50 in test [1] (Homo sapiens, THP-1, 2 h) stood at 23000 nM.

On to `C#Cc1c(F)ccc2cc(O)cc(-c3nc(OC)c4c([C@H]5[C@@H]6CNC[C@@H]65)nn(C5CC5)c4c3F)c12` [Example 61, 4-(3-((1R,5S,6r)-3-azabicyclo[3.1.0]hexan-6-yl)-1-cyclopropyl-7-fluoro-4-methoxy-1H-pyrazolo[4,3-c]pyridin-6-yl)-5-ethynyl-6-fluoronaphthalen-2-ol], for which the dissociation constant (Kd) at NRAS G12D C118S came to 15.8 nM. For the same compound, in test [1] (Homo sapiens, THP-1, 2 h), the IC50 was 477 nM.

`C#Cc1c(F)ccc2cc(O)cc(-c3nc(OC(C)C)c4c([C@H]5[C@@H]6CNC[C@@H]65)nn(C5CC5)c4c3F)c12` [Example 62, 4-(3-((1R,5S,6r)-3-azabicyclo[3.1.0]hexan-6-yl)-1-cyclopropyl-7-fluoro-4-isopropoxy-1H-pyrazolo[4,3-c]pyridin-6-yl)-5-ethynyl-6-fluoronaphthalen-2-ol] displayed an equilibrium dissociation constant (Kd) at NRAS G12D C118S of 18.8 nM. Moreover, in test [1] (Homo sapiens, THP-1, 2 h), the IC50 is 115 nM.

Regarding `C#Cc1c(F)ccc2cc(O)cc(-c3nc(OCC)c4c([C@H]5[C@@H]6CNC[C@@H]65)nn(C5CC5)c4c3F)c12` [Example 63, 4-(3-((1R,5S,6r)-3-azabicyclo[3.1.0]hexan-6-yl)-1-cyclopropyl-4-ethoxy-7-fluoro-1H-pyrazolo[4,3-c]pyridin-6-yl)-5-ethynyl-6-fluoronaphthalen-2-ol], the Kd at NRAS G12D C118S was found to be 8.29 nM. In addition, in test [1] (Homo sapiens, THP-1, 2 h), the concentration for half-maximal inhibition (IC50) worked out at 185 nM.

Turning to `C#Cc1c(F)ccc2cc(O)cc(-c3nc(OC4CCC4)c4c([C@H]5[C@@H]6CNC[C@@H]65)nn(C5CC5)c4c3F)c12` [Example 64, 4-(3-((1R,5S,6r)-3-azabicyclo[3.1.0]hexan-6-yl)-4-cyclobutoxy-1-cyclopropyl-7-fluoro-1H-pyrazolo[4,3-c]pyridin-6-yl)-5-ethynyl-6-fluoronaphthalen-2-ol], the affinity on NRAS G12D C118S, expressed as Kd, was 24.3 nM. Further, the half-maximal inhibitory concentration (IC50) in test [1] (Homo sapiens, THP-1, 2 h) is 480 nM.

Consider `C#Cc1c(F)ccc2cc(O)cc(-c3nc(OC4CCCC4)c4c([C@H]5[C@@H]6CNC[C@@H]65)nn(C5CC5)c4c3F)c12` [Example 65, 4-(3-((1R,5S,6r)-3-azabicyclo[3.1.0]hexan-6-yl)-4-(cyclopentyloxy)-1-cyclopropyl-7-fluoro-1H-pyrazolo[4,3-c]pyridin-6-yl)-5-ethynyl-6-fluoronaphthalen-2-ol], for which the Kd on NRAS G12D C118S amounted to 125 nM. The IC50 in test [1] (Homo sapiens, THP-1, 2 h) came out at 1060 nM.

The term Kd denotes the constant that tells how readily two partners part at equilibrium. Low values mean a tighter complex, high ones a looser complex. For orientation: IC50 means the concentration that inhibits the measured activity by half.
